From patent US9579358B2, “Compositions for binding to amyloid proteins” (LANCASTER UNIVERSITY BUSINESS ENTERPRISES LIMITED, priority 2011, dated 2017)
Like-named read-outs stand apart in the source and are kept apart here. Non-standard residues stand in square brackets, D forms with d. Residues, ends and D or L forms follow the SMILES beside them.

How the values were obtained:
[1] = biological target: T1, Aβ42 (Homo sapiens, UniProt P05067); assay: Thioflavin T (ThT) assay for Aβ fibrils; assay type: biochemical; details: 48 h incubation of Aβ42; molar ratios 1:1, 1:2, 1:4 and 1:10 (inhibitor:Aβ42)
T1 construct: Recombinant Aβ42, Ultrapure, was purchased from rPeptide, Bogart, Ga., USA; purchased rPeptide, Bogart, Ga., USA
Description: This method was the same as that published previously. Briefly, 60 μl samples of solutions containing Aβ42 (25 μM), ThT (15 μM) and between 0 and 125 μM RI-OR2 or RI-OR2-TAT, in 10 mM phosphate buffered saline (PBS), pH 7.4, were incubated in sealed, black, clear-bottomed 384-well plates (Corning). ThT fluorescence was monitored every 10 mins (λex=442 nm, λem=483 nm) for 48 h at 30° C. in a Biotek Synergy 2 plate reader.

[2] = biological target: T2, Aβ42 fibrils (Homo sapiens, UniProt P05067); assay: Surface plasmon resonance binding to immobilized Aβ42 fibrils
T2 construct: purchased rPeptide, Bogart, Ga., USA
Description: SPR (Surface Plasmon Resonance) is a technique that can be used to measure the affinity of a substance for a substrate. The substrate (in this case Aβ fibrils) is bound to a solid surface and excited using a laser light source. The compound to be tested (e.g. PINPs) is allowed to flow over the bound substrate in suspension/solution and the emission spectra of the substrate will change if the compound binds. A second solution, without the test compound, can then added to elute any bound compound and the emission spectra may be observed to note loss of bound compound from the substrate. For a specific example regarding peptide binding to Aβ see reference (30).
In the examples presented here, The substance is introduced at a flow rate of 30 uL/min for 5 minute over the immobilized substrate. There is a spike in the signal which is due to the introduction of solvent without PINPs to show removal of the peptide bound to the Aβ fibrils. There are two plots related to addition of peptide at two different concentrations, 1 and 3 μM, plus a computer generated fitted curve for each one.
These experiments were conducted using a Sensi Q semi-automatic SPR machine (ICx Nomadics). This apparatus has two parallel flow cells; one was used to immobilize Aβ42 fibrils while the other was used as “reference” (empty surface). A COOH5 sensor chip (ICx Nomadics) was employed for this purpose and the peptide was immobilized by amine coupling chemistry. Briefly, after surface activation, the peptide preparation was diluted to 10 μM in acetate buffer (pH 4.0) and then injected for 5 min at a flow rate of 30 μL/min. Any remaining activated groups were blocked with ethanolamine (pH 8.0). The final immobilization level was ˜5,000 resonance units (1 RU=1 pg of protein/mm^2). The empty “reference” surface was prepared in parallel using the same immobilization procedure, but without addition of the peptide. Sensorgrams were then obtained via injection of three different concentrations of RI-OR2-TAT (1, 3 and 6 μM), as well as the vehicle (PBS with 0.005% Tween 20), over the immobilized ligand or control surface, in parallel.
These experiments were conducted using a Sensi Q semi-automatic SPR machine (ICx Nomadics). This apparatus has two parallel flow cells; one was used to immobilize Aβ(1-42) fibrils (see Aβ peptides) while the other was used as “reference” (empty surface). A COOH5 sensor chip (ICx Nomadics) was employed for this purpose and the peptide was immobilized by amine coupling chemistry. Briefly, after surface activation, the peptide preparations was diluted to 10 μM in acetate buffer (pH 4.0) and then injected for 5 min at a flow rate of 30 μL/min. Any remaining activated groups were blocked with ethanolamine (pH 8.0). The final immobilization level was 5000 resonance units (1 RU=1 pg of protein/mm^2). The empty “reference” surface was prepared in parallel using the same immobilization procedure, but without addition of the peptide. Sensorgrams were then obtained via injection of two different concentrations of RI-OR2 TAT/peptide liposome (1 and 3 μM), as well as the vehicle (PBS with 0.005% Tween 20), over the immobilized ligand or control surface, in parallel, at the same time.

[3] = biological target: T1, Aβ42; assay: Atomic force microscopy of incubated Aβ42; assay type: biochemical; details: 1:2 molar ratio RI-OR2-TAT:Aβ42; Aβ42 25 μM, 24 h
Description: Aβ42 was incubated at 25 μM in the presence or absence of 12.5 μM RI-OR2-TAT in PBS, pH 7.4, for 24 h. Samples were diluted 1:10 in PBS and then a 2 μl aliquot was deposited onto the surface of freshly cleaned mica and allowed to dry.
Images were obtained in tapping mode using a Multimode™ SPM NanoScope IIIa microscope (Digital Instruments, New York, USA). Silicon cantilever tips measuring 125 μm long, 30 μm wide and with a tip radius <10 nm were used (Budget Sensors, Bulgaria). The resonance frequency was 300 kHz and force constants 40 Nm. All images were first order flattened and edited using WSxM 5.0 Develop 4.3 software, (Nanotech, Madrid, Spain).

T2 sequence (P05067 672-713 limits assumed): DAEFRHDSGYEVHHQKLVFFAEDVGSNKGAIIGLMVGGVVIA
T1 sequence (P05067 672-713 limits assumed): as above

CC(=O)N[C@H](CCCNC(=N)N)C(=O)NCC(=O)N[C@H](Cc1ccccc1)C(=O)N[C@H](Cc1ccccc1)C(=O)N[C@@H](C(=O)N[C@H](CC(C)C)C(=O)N[C@H](CCCCN)C(=O)NCC(=O)N[C@H](CCCNC(=N)N)C(=O)N[C@H](CCCNC(=N)N)C(=O)N[C@H](CCCNC(=N)N)C(=O)N[C@H](CCCNC(=N)N)C(=O)N[C@H](CCC(N)=O)C(=O)N[C@H](CCCNC(=N)N)C(=O)N[C@H](CCCNC(=N)N)C(=O)N[C@H](CCCCN)C(=O)N[C@H](CCCCN)C(=O)N[C@H](CCCNC(=N)N)C(=O)NCC(=O)N[C@H](Cc1ccc(O)cc1)C(N)=O)C(C)C [RI-OR2-TAT, Ac-rGffvlkGrrrrqrrkkrGy-NH2] (Ac-[dR]G[dF][dF][dV][dL][dK]G[dR][dR][dR][dR][dQ][dR][dR][dK][dK][dR]G[dY]-NH2)
ThT fluorescence [1]: lower fluorescence | increase in affinity of binding to Aβ fibrils compared to RI-OR2 [2]: approximately 1000 fold | koff ([2]; Example 2, 1, 3 and 6 μM): 0.00037 ± 1.5e-08 s⁻¹ | kon ([2]; Example 2, 1, 3 and 6 μM): 3680 ± 615 M⁻¹ s⁻¹ | Kd ([2]; Example 2, Langmuir 1:1 interaction model, read-out: calculated apparent affinity value (Kd)): 58 to 125 nM | binding affinity for Aβ42 fibrils relative to RI-OR2 ([2]; Example 2, versus Kd=9.5 μM): ~100 fold | binding affinity relative to peptide without TAT ([2]; Example 7): approximately 1000 times | Kd ([2]; Example 7, 1 and 3 μM, read-out: Kd, binding to Aβ fibrils): 15 to 75 nM | Kd ([2]; read-out: Kd, binding to Aβ fibrils): 41 to 75 nM | oligomer formation in AFM images [3]: clear inhibition of oligomer formation
